These results are taken from article PMC9147958, “Formulation and Evaluation of SNEDDS Loaded with Original Lipophenol for the Oral Route to Prevent Dry AMD and Stragardt’s Disease” (Pharmaceutics, 2022).

For series [1], the system named is ddY mice. Conditions: cited from earlier work.
The nature of series [2]: Solubility of IP-DHA in PBS, SGF and ISF without enzymes. Type of series: physicochemical. Conditions: for solubility: thermodynamic from solid, n = 3. On the procedure:
Solubility was evaluated in PBS (pH 7.4), SGF, and ISF (Table 1) without enzymes (pepsin and pancreatin). An excess of IP-DHA was added for each medium type, followed by mixing using a vortex mixer (Vortex Génie 2) and equilibration at room temperature. Next, the mixtures were centrifuged at 3000 rpm (Sigma centrifuge 2K15) for 15 min. The supernatant from each sample was diluted with methanol. The concentration of IP-DHA in each sample was determined using the µHPLC/MS-MS analysis, as described in Section 2.2.3.

Series [3] in a line: Log P of IP-DHA. Format: physicochemical.
A short description of series [4]: Caco-2 permeability. Format: in vitro ADME. The following applies: human, Caco-2, pH 6.5/7.4, 10 μM. On the procedure:
Caco-2 cells are human intestinal epithelial cells that are derived from a colorectal adenocarcinoma. Cells were seeded at 1 × 10^5 cells/cm^2 in 96-well Multiscreen^TM plates (Millipore). This assay was performed in either the apical-to-basolateral (A–B) or B–A direction. IP-DHA was prepared at 10 μM in HBSS-MES (pH 6.5) or HBSS-HEPES (pH 7.4), with a final DMSO concentration of 1%. The working solution was then centrifuged, and the supernatant was added to the donor side. The assay plate was incubated at 37 °C with gentle shaking for 60 min or 40 min for the A–B or B–A assays, respectively. Samples were aliquoted from the donor side at time zero and from the end point, and from the receiver side at the end point. Samples were analyzed via HPLC-MS/MS, as described in Section 2.2.3.
The apparent permeability coefficient (Papp) in cm/s of IP-DHA was calculated as follows: Papp=VR×CRend/Δt×1/A×CDmind−CRmind where VR is the volume of the receiver chamber. CR(end) is the concentration of IP-DHA in the receiver chamber at the end time point, Δt is the incubation time, A is the surface area of the cell monolayer, and CD(mid) is the calculated mid-point concentration of the test compound on the donor side, which is the mean value of the donor concentration at time 0 min and the donor concentration at the end time point. […]

The nature of series [5]: Stability on human microsomes. Format: in vitro ADME. The arrangement: dose or concentration left out as unconfirmed. Conditions: pooled liver microsomes, pH 7.4, 37 °C, NADPH-generating system, read-out: Stability on human microsomes T1/2. On the procedure: The metabolic stability of IP-DHA on human microsomes (microsomes S9, cryopreserved hepatocytes, recombinant CYP, and recombinant UGT) has been evaluated and expressed as percentage of IP-DHA remaining. IP-DHA was pre-incubated with pooled liver microsomes in phosphate buffer (pH 7.4) at 10 mM for 5 min in a 37 °C shaking water bath (IKA® RH basic KT/C). The reaction was initiated using the NADPH-generating system and incubated for 0, 15, 30, 45, and 60 min. The reaction was stopped by transferring the incubation mixture to acetonitrile/methanol (1:3 v/v ratio). Samples were then mixed and centrifuged at 3000 rpm (Sigma centrifuge 2K15) for 20 min to precipitate the protein, and supernatants were collected. IP-DHA concentration was determined using µHPLC-MS/MS analysis, as described in Section 2.2.3. The half-life (T1/2) was estimated from the slope of the initial linear range of the logarithmic curve of the compound remaining (%) vs. time, assuming first-order kinetics.

Series [6] in a line: Solubility of IP-DHA in SNEDDS excipients. Type of series: physicochemical.
Series [7] in a line: IP-DHA stability and solubility in gastric- and intestinal-simulated fluids. Type of series: in vitro ADME. Details: half-life: dose or concentration left out as unconfirmed. On the procedure: The chemical stability of free IP-DHA and IP-DHA loaded in SNEDDS at 30 mg/mL was evaluated in a gastric and an intestinal environment (Table 1). A total of 150 µL of free IP-DHA (solubilized in MeOH) or SNEDDS-IP-DHA loaded at 30 mg/mL were placed in 20 mL of freshly prepared SGF or ISF under magnetic stirring at 150 rpm in a water bath at 37 °C. Samples were collected at 0, 30, 60, and 90 min for the stability analysis in SGF, or 0, 20, 40, 60, 80, 100, and 120 min for the stability analysis in ISF. A total of 500 µL of the medium was recovered and diluted with 500 µL of MeOH to stop the enzymatic degradation reaction. The samples were centrifuged (Sigma centrifuge 2K15) for 10 min at 15,000 rpm. The supernatant was removed and IP-DHA was quantified as described in Section 2.3.5.

The test system of series [8] is ABCA4KO mice. In words: Acute light-induced retinal degeneration, electroretinography. Type of series: in vivo. Conditions: 100 mg/kg oral, 60 min before 20,000 Lux white light for 90 min, ERG 5 days later. Here is the method: (§1) Mice between 8 and 16 weeks of age (both sexes), were weighed to adjust the quantity of administered compound for a dosage at 100, 50, or 17 mg/kg. Mice were orally fed with a 22-gauge needle containing SNEDDS or soybean oil as a control vehicle, IP-DHA solubilized in soybean oil (20 mg/mL), and SNEDDS-IP-DHA (30 mg/mL).
(§2) After the mice were dark-adapted (DA) for 24 h, their pupils were dilated with 0.5% tropicamide. The mice were force-fed in the dark 1 h before light exposure. Mice were exposed to constant light (two cool white fluorescent lamps, OSRAM of 26 watts, 1800 lm, a maximum photopic efficiency of ~470 nm, light intensity averaged to 24 mW/cm^2, corresponding to ≈20.000 Lux) for 1.50 h in a white plastic bucket with a fan. Mice were kept in the dark for 5 days before we performed the final retinal evaluations. Throughout the experiment, the ambient temperature was 22 °C, which was identical to that of the breeding box, to avoid an increase in body temperature, which could further damage the retina.
All electrophysiological examinations were conducted using the Visiosystem (SIEM, France). Animals were prepared and anesthetized, and electroretinogram recording (binocular full-field ERG) was performed with cotton electrodes, as previously described.

For series [9], the system named is ABCA4KO mice. In words: Acute light-induced retinal degeneration, histological analysis. Type of series: in vivo. The following applies: 100 mg/kg oral, acute white light; dark-adapted mice 2.2. On the procedure:
as §1, §2
All animals were killed via cervical dislocation. The eyes were rapidly enucleated and fixed in 4% paraformaldehyde for 24 h at 4 °C. Eyecups were embedded in paraffin and cut into 5 μm sagittal sections. […] The thickness of the inner nuclear layer (INL) and the outer nuclear layer (ONL) was measured and expressed in arbitrary units using ImageJ software. […]

In series [10] the test system is ABCA4KO (−/−) mouse model. Details: method as in PMID 32641711. The following applies: intravenous route, cited from earlier work.
The subject of series [11] is retinal cells. The arrangement: method as in PMID 27072643. The following applies: in vitro; cited from earlier work.
On the set-up of series [12]: method as in PMID 27151507. The following applies: administered dose of 25 mg/kg; cited from earlier work.
Series [13] concerns rats. Conditions: 25 mg/kg/day oral with corn oil, 30 days, 1.5 h/day (1500 Lux); cited from earlier work.

Values after ≈ are worked out from the molar mass of the structure shown. Read-outs that look alike come from different tables or passages of the source. Where only a bound is given, the exact number is not on record here.

On to `CC1=C(/C=C/C(C)=C/C=C/C(C)=C/C=C/C=C(C)/C=C/C=C(C)/C=C/C2=C(C)C(=O)[C@@H](O)CC2(C)C)C(C)(C)C[C@H](O)C1=O` [Astaxantin], for which the Photoreceptor protection entry in series [1] (dissolved in olive oil, 100 mg/kg oral, white light 3 h at 8000 Lux) is listed as “partially preserve photoreceptors”.

For the compound `CC/C=C\C/C=C\C/C=C\C/C=C\C/C=C\C/C=C\CCC(=O)Oc1cc(O)cc(OC(C)C)c1` [IP-DHA, phloroglucinol-isopropyl-DHA], the solubility is 0.0115 ± 0.00153 mg/mL (≈ 0.0241 mM) in [2] (PBS, pH 7.4, aqueous buffer, room temperature, read-out: Solubility in PBS, pH 7.4); 0.00739 ± 0.00026 mg/mL (≈ 0.0154 mM) in series [2] (pH 1.5, simulated gastric fluid, free IP-DHA, SGF without pepsin, read-out: Solubility in SGF); 0.0102 ± 0.00012 mg/mL (≈ 0.0213 mM) in [2] (pH 7.4, fassgf or other biorelevant, free IP-DHA, ISF without pancreatin, read-out: Solubility in ISF); 46 ± 2.15 mg/mL (≈ 96.1 mM) in [6] (Labrasol, surfactant, read-out: Solubility of IP-DHA in Labrasol); 25.5 ± 3.27 mg/mL (≈ 53.2 mM) in [6] (Phosal 53 MCT, oil or lipid, oil phase, read-out: Solubility of IP-DHA in Phosal 53 MCT); 45 ± 2.16 mg/mL (≈ 94.1 mM) in series [6] (Transcutol HP, organic solvent or mixture, co-surfactant, read-out: Solubility of IP-DHA in Transcutol HP). For the same compound, in series [2] (from poor solubility and poor Caco-2 permeability), the BCS classification result is given as “BCS Class IV”. Moreover, the logP in series [3] was > 5. In [4] (40 min), the Papp B→A at 40 min, 10 μM was determined as 0.7 ± 0.05 ×10⁻⁶ cm/s. Moreover, the Papp A→B at 60 min, 10 μM in series [4] (60 min) turned out to be 1 ± 0.14 ×10⁻⁶ cm/s. Moreover, the half-life in series [5] was 10 min; in series [7] (ISF with pancreatin and bile salts, pH 7.4, 37 °C, read-out: T1/2 of IP-DHA in intestinal environment (ISF)), 11 min. Further, in series [7] (SGF with pepsin, pH 1.5, 37 °C, up to 90 min), the “Stability of IP-DHA in gastric medium (SGF)” value is “remained stable”. The “a-wave, % of photoreceptor activity remaining vs dark-adapted mice” value in series [8] was 42%. Further, in [8], the “b-wave, % of photoreceptor activity remaining vs dark-adapted mice” value is listed as 39%. Further, the “INL/ONL ratio of thickness” value in series [9] is on record as 0.7. For the same compound, the Protection of photoreceptors in series [10] (IP-DHA associated with BSA at 30 mg/kg) is 80–85%. In addition, the “Effect on the retinoid visual cycle” value in series [10] is listed as “did not affect the retinoid visual cycle”. Moreover, in series [11], the “Toxicity on retinal cells” value is given as “absence of the toxicity”.

Regarding `CC(=O)N1CCN(c2ccc(N)c(-n3ccnc3)c2)CC1` [NSP-116], the Photoreceptor protection result in [1] (suspended in water with 0.5% CMC, 30 mg/kg oral 30 min before white light 8000 Lux for 3 h) is listed as “effective in protecting photoreceptors”. Also, in series [12], the Cmax in plasma was 7000 ng/mL.

`CC1=C[C@H](O)CC(C)(C)[C@H]1/C=C/C(C)=C/C=C/C(C)=C/C=C/C=C(C)/C=C/C=C(C)/C=C/C1=C(C)C[C@@H](O)CC1(C)C` [lutein]: the Photoreceptor protection entry in [13] was “demonstrated its efficacy for protecting photoreceptors”.
